# “And” between values parts separate entries of the source, which are not always exact repeats. Identical values can stand only once. Counter-ions that a name gives are not always drawn. Like-named read-outs stand apart in the source and are kept apart here.
# Tests used:
# [1] = Body weight during the test; type: in vivo, mouse; settings: mean ± standard error
# Procedure: For all objects of each experimental group, when drug administration started, the body weight was measured twice a week from the start of administration until the end of the experiment, and was measured on the date of the final autopsy.
# [2] = test system: Acetylcholine esterase (AchE); type: in vivo; settings: forebrain, scopolamine, mean ± standard error
# Procedure: (§1) On the next day of the end of the passive avoidance test, the test material was administered, and the objects were allowed to stand in a home cage for 30 minutes. Subsequently, Scopolamine was intraperitoneally administered at a dose of 1 mg/kg, and then the objects were allowed to stand in a home cage for 30 minutes.
# (§2) A brain tissue was separately separated and stored at −70° C. until analysis.
# Acetylcholine esterase (AchE) activity was measured with a supernatant liquid obtained by adding a tissue protein extraction reagent (Biovision, CA, USA) to a forebrain tissue, crushing it, and centrifuging it, using an acetylcholinesterase activity assay kit (Biovision, CA, USA).
# IL-1β = assay: Inflammatory cytokine IL-1β in hippocampus (ELISA); type: in vivo, mouse; settings: scopolamine, mean ± standard error
# Procedure: as §1, §2
# (§3) Inflammatory cytokine in a brain tissue was measured with a supernatant liquid obtained by adding a tissue protein extraction reagent (Biovision, CA, USA) to a brain tissue, crushing it, and centrifuging it, using an ELISA Kit (R&D System, MN, USA).
# sphingoid base = assay: Sphingoid base content in brain tissue (forebrain); type: in vivo, mouse; design: Sphingoid base content, Sphingosine (SPN) / Sphingoid base content, S1P / Sphingoid base content, Sphinganine (Sa) / Sphingoid base content, Sa1P: unit not given here; settings: for Sphingoid base content, S1P / Sphingoid base content, Sa1P / Sphingoid base content, Sphinganine (Sa) / Sphingoid base content, Sphingosine (SPN): Neuromide 100 mg/kg oral, scopolamine
# Procedure: Two types of forebrain parts of the experimental groups G1, G2, and G5 in the separated brain tissue were secured, respectively, the contents of sphingoid base were analyzed, and the average and the deviation were calculated.
# At this time, the measurement of contents of sphingosine (SPN), sphinganine (Sa), sphingosine-1-phosphate (S1P), and sphinganine-1-phosphate (Sa1P) which are sphingoid bases was performed by confirmation and quantitative method of sphingoid bases commonly known to a person skilled in the art.
# ceramide = assay: Ceramide content in brain tissue (forebrain); type: in vivo, mouse; settings: for Ceramide content, N-acyl chain length C14 / Ceramide content, N-acyl chain length C16 / Ceramide content, N-acyl chain length C18 / Ceramide content, N-acyl chain length C20 / Ceramide content, N-acyl chain length C22 / Ceramide content, N-acyl chain length C24 / Ceramide content, N-acyl chain length C24:1 / Ceramide content, N-acyl chain length C26 / Ceramide content, N-acyl chain length C26:1 / Ceramide content, Total: Neuromide 100 mg/kg oral, scopolamine
# Procedure: Two types of forebrain parts of experimental groups G1, G2, and G5 in the brain tissues separated above were secured, respectively.
# The ceramide contents were analyzed therefrom, and the average and the deviation thereof were calculated.
# At this time, the measurement of the ceramide content was performed by confirmation and quantitative method of ceramide commonly known to a person skilled in the art.
# ICR mouse = assay: Passive avoidance test in scopolamine-treated mice; type: in vivo; settings: scopolamine i.p., mean ± standard error
# Procedure: Each material prepared in the preparation example was prepared so that each may be orally administered to 7 experimental groups in the following and Table 1.
# In the following Table 1, only the excipient prepared in the preparation examples was orally administered to a normal control group and a negative control group, respectively, scopolamine was administered to the remaining experimental groups (G2-G7) other than the normal control group (G1) in the behavioral experiment of Test Example 4 to cause cognitive function decline and a memory impairment effect, and then the behavior was observed.
# After the test material (drug) of Test Example 3 was administered to each experimental group during the test, a passive avoidance test was performed, and change in mouse behavior was observed.
# After each of the test materials was administered to each experimental group of Table 1 of Test Example 3, the passive avoidance test was performed on day 25 by the following procedure: • a) The object was put into an unlit white room of a conditioning box for the passive avoidance test, and then was adapted for 60 seconds. • b) A guillotine door was opened simultaneously with turning on a LED light of the white room, and the object was allowed to explore a dark room for 180 seconds for adaptation. • c) On the next day (day 26) also, the above process was performed and repeated once more, and the object was adapted so that it took around 30 seconds to enter the dark room after turning on the LED light. • d) After administering the drug 1 hour before learning on day 27, 4 mL/kg of Scopolamine which was dissolved at 0.25 mg/mL in a 0.9% saline solution was intraperitoneally administered to the objects of the remaining experimental groups other than the normal control group (G1), respectively, after 30 minutes, and the objects were allowed to stand for 30 minutes in the breeding box. • e) 30 minutes after administering Scopolamine, the objects were put into the unlit white room, the guillotine door was opened simultaneously with turning on the LED light after 10 seconds. When all of the four legs of the objects entered to the dark room, the guillotine door was closed, the time spent (latency time) was measured with a timer, and electrical stimulation was given at 0.5 mA for 3 seconds.
# TNF-α = assay: Inflammatory cytokine TNF-α in hippocampus (ELISA); type: in vivo, mouse; settings: scopolamine, mean ± standard error
# Procedure: as §1, §2, §3
# acetylcholine = assay: Acetylcholine content in hippocampus after passive avoidance test; type: in vivo, mouse; settings: scopolamine, mean ± standard error
# Procedure: as §1, §2
# A choline assay buffer (Biovision, CA, USA) was added to a hippocampal tissue of the separated brain, crushed, and then centrifuged to obtain a supernatant liquid, which was used in the test.
# The amount of acetylcholine in the supernatant liquid was measured using a choline/acetylcholine quantification kit (Biovision, CA, USA).
# [3] = Average of two forebrain samples
# [4] = individual forebrain samples 5-2, 5-3, listed as Example 3
# [5] = Donepezil 1 mg/kg oral, hydrochloride
smiles,measurement,setting,value
"CCCCCCCCCCCCCCCC(=O)NC(CO)CO [Neuromide, N-palmitoyl serinol]",Weight,"[1]; Neuromide 16 mg/kg oral, day 0 after administration",34.9 ± 0.4 g
same,Weight,"[1]; Neuromide 16 mg/kg oral, day 1 after administration",35.1 ± 0.4 g
same,Weight,"[1]; Neuromide 16 mg/kg oral, day 5 after administration",35.9 ± 0.4 g
same,Weight,"[1]; Neuromide 16 mg/kg oral, day 8 after administration",36.4 ± 0.5 g
same,Weight,"[1]; Neuromide 16 mg/kg oral, day 12 after administration",36.4 ± 0.5 g
same,Weight,"[1]; Neuromide 16 mg/kg oral, day 15 after administration",36.3 ± 0.6 g
same,Weight,"[1]; Neuromide 16 mg/kg oral, day 19 after administration",37.3 ± 0.7 g
same,Weight,"[1]; Neuromide 16 mg/kg oral, day 22 after administration",37.2 ± 1^ g
same,Weight,"[1]; Neuromide 16 mg/kg oral, day 26 after administration",37.2 ± 0.8 g
same,Weight,"[1]; Neuromide 16 mg/kg oral, day 29 after administration",37.1 ± 0.9 g
same,Weight,"[1]; Neuromide 40 mg/kg oral, day 0 after administration",34.9 ± 0.4 g
same,Weight,"[1]; Neuromide 40 mg/kg oral, day 1 after administration",35.5 ± 0.4 g
same,Weight,"[1]; Neuromide 40 mg/kg oral, day 5 after administration",36 ± 0.3 g
same,Weight,"[1]; Neuromide 40 mg/kg oral, day 8 after administration",36.7 ± 0.4 g
same,Weight,"[1]; Neuromide 40 mg/kg oral, day 12 after administration",37.2 ± 0.4 g
same,Weight,"[1]; Neuromide 40 mg/kg oral, day 15 after administration",37.5 ± 0.4 g
same,Weight,"[1]; Neuromide 40 mg/kg oral, day 19 after administration",37.8 ± 0.4 g
same,Weight,"[1]; Neuromide 40 mg/kg oral, day 22 after administration",38 ± 0.4 g
same,Weight,"[1]; Neuromide 40 mg/kg oral, day 26 after administration",38.3 ± 0.4 g
same,Weight,"[1]; Neuromide 40 mg/kg oral, day 29 after administration",37.9 ± 0.5 g
same,Weight,"[1]; Neuromide 100 mg/kg oral, day 0 after administration",34.9 ± 0.4 g
same,Weight,"[1]; Neuromide 100 mg/kg oral, day 1 after administration",35.3 ± 0.5 g
same,Weight,"[1]; Neuromide 100 mg/kg oral, day 5 after administration",36.2 ± 0.5 g
same,Weight,"[1]; Neuromide 100 mg/kg oral, day 8 after administration",36.7 ± 0.7 g
same,Weight,"[1]; Neuromide 100 mg/kg oral, day 12 after administration",37.6 ± 0.5 g
same,Weight,"[1]; Neuromide 100 mg/kg oral, day 15 after administration",38 ± 0.6 g
same,Weight,"[1]; Neuromide 100 mg/kg oral, day 19 after administration",38.6 ± 0.6 g
same,Weight,"[1]; Neuromide 100 mg/kg oral, day 22 after administration",38.4 ± 0.7 g
same,Weight,"[1]; Neuromide 100 mg/kg oral, day 26 after administration",38.8 ± 0.6 g
same,Weight,"[1]; Neuromide 100 mg/kg oral, day 29 after administration",38.9 ± 0.8 g
same,Acetylcholinesterase (AchE) activity,[2]; Neuromide 16 mg/kg oral,7.17 mU/mg tissue protein and 7.17 ± 1.75 mU/mg tissue protein
same,Acetylcholinesterase (AchE) activity,[2]; Neuromide 40 mg/kg oral,7.79 mU/mg tissue protein and 7.79 ± 1.93 mU/mg tissue protein
same,Acetylcholinesterase (AchE) activity,[2]; Neuromide 100 mg/kg oral,6.19 mU/mg tissue protein and 6.19 ± 1.84 mU/mg tissue protein
same,IL-1β,IL-1β; Neuromide 16 mg/kg oral,194.7 pg/mg tissue protein and 194.7 ± 30.6 pg/mg tissue protein
same,IL-1β,IL-1β; Neuromide 40 mg/kg oral,188.6 pg/mg tissue protein and 188.6 ± 32.4 pg/mg tissue protein
same,IL-1β,IL-1β; Neuromide 100 mg/kg oral,151.5 pg/mg tissue protein and 151.5 ± 24.9 pg/mg tissue protein
same,"Sphingoid base content, S1P",sphingoid base; [3],183.74
same,"Sphingoid base content, Sa1P",sphingoid base; [3],69.57
same,"Sphingoid base content, Sphinganine (Sa)",sphingoid base; [3],545.74
same,"Sphingoid base content, Sphingosine (SPN)",sphingoid base; [3],2010.00
same,S1P increase as compared with the normal control group,"sphingoid base; forebrain, Neuromide 100 mg/kg",≥ 20%
same,"Sphingoid base content, S1P",sphingoid base; [4],159.43 and 208.05
same,"Sphingoid base content, Sa1P",sphingoid base; [4],69.16 and 69.98
same,"Sphingoid base content, Sphinganine (Sa)",sphingoid base; [4],506.47 and 585.01
same,"Sphingoid base content, Sphingosine (SPN)",sphingoid base; [4],1861.23 and 2158.78
same,"Ceramide content, N-acyl chain length C14",ceramide; [3],2.71
same,"Ceramide content, N-acyl chain length C16",ceramide; [3],284.09
same,"Ceramide content, N-acyl chain length C18",ceramide; [3],3956.61
same,"Ceramide content, N-acyl chain length C20",ceramide; [3],92.88
same,"Ceramide content, N-acyl chain length C22",ceramide; [3],51.78
same,"Ceramide content, N-acyl chain length C24",ceramide; [3],68.30
same,"Ceramide content, N-acyl chain length C24:1",ceramide; [3],453.42
same,"Ceramide content, N-acyl chain length C26",ceramide; [3],11.09
same,"Ceramide content, N-acyl chain length C26:1",ceramide; [3],4.59
same,"Ceramide content, Total",ceramide; [3],4925.46
same,ceramide synthesis amount,"ceramide; forebrain, Neuromide 100 mg/kg",significantly increased
same,"Ceramide content, N-acyl chain length C14",ceramide; [4],2.92 and 2.50
same,"Ceramide content, N-acyl chain length C16",ceramide; [4],288.68 and 279.51
same,"Ceramide content, N-acyl chain length C18",ceramide; [4],3980.71 and 3932.52
same,"Ceramide content, N-acyl chain length C20",ceramide; [4],94.95 and 90.81
same,"Ceramide content, N-acyl chain length C22",ceramide; [4],60.05 and 43.51
same,"Ceramide content, N-acyl chain length C24",ceramide; [4],77.31 and 59.29
same,"Ceramide content, N-acyl chain length C24:1",ceramide; [4],498.48 and 408.35
same,"Ceramide content, N-acyl chain length C26",ceramide; [4],12.46 and 9.72
same,"Ceramide content, N-acyl chain length C26:1",ceramide; [4],4.78 and 4.40
same,"Ceramide content, Total",ceramide; [4],5020.32 and 4830.60
same,Passive avoidance test Time taken (latency time),ICR mouse; Neuromide 16 mg/kg oral,22.3 s and 22.3 ± 3.6 s
same,Passive avoidance test Time taken (latency time),ICR mouse; Neuromide 40 mg/kg oral,31 s and 31 ± 8.9 s
same,Passive avoidance test Time taken (latency time),ICR mouse; Neuromide 100 mg/kg oral,35.7 s and 35.7 ± 11.5 s
same,TNF-α,TNF-α; Neuromide 16 mg/kg oral,211.5 pg/mg tissue protein and 211.5 ± 25.3 pg/mg tissue protein
same,TNF-α,TNF-α; Neuromide 40 mg/kg oral,196.2 pg/mg tissue protein and 196.2 ± 28.4 pg/mg tissue protein
same,TNF-α,TNF-α; Neuromide 100 mg/kg oral,189.2 pg/mg tissue protein and 189.2 ± 33 pg/mg tissue protein
same,Acetylcholine,acetylcholine; Neuromide 16 mg/kg oral,1.1 Nmol/mg protein and 1.1 ± 0.1 Nmol/mg protein
same,Acetylcholine,acetylcholine; Neuromide 40 mg/kg oral,1.1 Nmol/mg protein and 1.1 ± 0.3 Nmol/mg protein
same,Acetylcholine,acetylcholine; Neuromide 100 mg/kg oral,1.5 Nmol/mg protein and 1.5 ± 0.2 Nmol/mg protein
"COc1cc2c(cc1OC)C(=O)C(CC1CCN(Cc3ccccc3)CC1)C2 (stereo not shown) [Donepezil, Donepezil hydrochloride, reference compound]",IL-1β,IL-1β; [5],160.9 pg/mg tissue protein and 160.9 ± 23.2 pg/mg tissue protein
same,Passive avoidance test Time taken (latency time),ICR mouse; [5],45.6 s and 45.6 ± 14 s
same,TNF-α,TNF-α; [5],186.2 pg/mg tissue protein and 186.2 ± 30.3 pg/mg tissue protein
same,Acetylcholine,acetylcholine; [5],1.8 Nmol/mg protein and 1.8 ± 0.2 Nmol/mg protein
